Assays:
GDP-loaded KRAS G12D = GDP-loaded KRAS G12D (Homo sapiens (Human), UniProt P01116, G12D); assay: KRAS G12D (GDP) biochemical assay (TR-FRET probe displacement); format: binding; conditions: 2 hours
In short: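 Compound pre-incubated 30 min with GDP-loaded KRAS G12D in 50 mM Hepes pH 7.4, 150 mM NaCl, 5 mM MgCl2, 0.005% Tween-20, then Eu-streptavidin and TR-FRET probe added. After 2 h at room temperature, TR-FRET ratio read; IC50 is 50% ratio decrease, sigmoidal fit.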

GP2D (KRAS G12D) cells = assay: 2D cell viability assay (CellTiter-Glo); format: cell-based; conditions: 4 days
In short: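 GP2D (KRAS G12D) cells, 1000/well in RPMI + 10% FBS, were plated onto compound (1:3 DMSO series) and grown 4 days at 37 °C, 5% CO2 in 2D. CellTiter-Glo luminescence was read; EC50 is the concentration giving 50% signal decrease, from sigmoidal fit.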

AsPC-1 (KRAS G12D) cells = assay: 3D cell viability assay (spheroids, CellTiter-Glo 3D); format: cell-based; conditions: AsPC-1 cells, 3D spheroids, 4 days
Protocol: Example C. 3D Cell Viability Assay
Compounds were tested in a 384-well format for their ability to inhibit the viability of AsPC-1 (KRAS G12D) cells in 3D assays. On day 0, 1000 cells/well (80 μL volume per well) in DMEM with 10% FBS, and Penicillin-Streptomycin-Glutamine were plated in 384-well Ultra-Low Attachment Spheroid Microplates (Corning, Catalog #3830) on the BioTEK EL406 liquid dispenser with a 5 μL dispensing cassette (BioTek 7170011). The plates were incubated at 37° C., 5% CO2 for 3 days to allow spheroid formation. On day 3, compounds were serially diluted (1:3) in DMSO. The Biomek FX was used to add 400 nL of test molecule per well. The plates were incubated at 37° C., 5% CO2 for 4 days before addition of CellTiter-Glo 3D (Promega, Catalog #9683) reagent and measurement of luminescence signal. EC50 values were defined as the compound concentration that causes a 50% decrease in luminescence signal and were calculated using a sigmoidal dose-response model to generate curve fits.

4-((5S,5aS,6S,9R)-5-ethyl-1-fluoro-12-(((2R,7aS)-2-fluorotetrahydro-1H-pyrrolizin-7a(5H)-yl)methoxy)-5a,6,7,8,9,10-hexahydro-5H-4-oxa-3,10a,11,13,14-pentaaza-6,9-methanonaphtho[1,8-ab]heptalen-2-yl)-5-ethynyl-6-fluoronaphthalen-2-ol [Example 80]
IC50 (GDP-loaded KRAS G12D): 0.1 nM | EC50 (GP2D (KRAS G12D) cells): 2.2 nM | EC50 (AsPC-1 (KRAS G12D) cells): 2 nM

C#Cc1c(F)ccc2cc(O)cc(-c3nc4c5c(nc(OCC6(CN7CCC8(CC7)CC8)CC6)nc5c3F)N3C[C@H]5CC[C@H](N5)[C@H]3CC4)c12 [Example 177, 4-((5aR,6S,9R)-12-((1-((6-azaspiro[2.5]octan-6-yl)methyl)cyclopropyl)methoxy)-1-fluoro-4,5,5a,6,7,8,9,10-octahydro-3,10a,11,13,14-pentaaza[6,9]methanonaphtho[1,8-ab]heptalen-2-yl)-5-ethynyl-6-fluoronaphthalen-2-ol]
EC50 (GP2D (KRAS G12D) cells; GP2d, 96 h): 1.5 nM | EC50 (AsPC-1 (KRAS G12D) cells; Homo sapiens, ASPC1, 96 h): 20 nM

C#Cc1c(F)ccc2cccc(-c3nc4c5c(nc(OC[C@@]67CCCN6[C@H](COc6cc(C(F)(F)F)cnn6)CC7)nc5c3F)N3C[C@H]5CC[C@H](N5)[C@H]3CCC4)c12 [Example 198, (6aR,7S,10R)-2-(8-ethynyl-7-fluoronaphthalen-1-yl)-1-fluoro-13-(((3S,7aS)-3-(((5-(trifluoromethyl)pyridazin-3-yl)oxy)methyl)tetrahydro-1H-pyrrolizin-7a(5H)-yl)methoxy)-5,6,6a,7,8,9,10,11-octahydro-4H-3,11a,12,14,15-pentaaza-7,10-methanocyclohepta[4,5]cycloocta[1,2,3-de]naphthalene]
IC50 (GDP-loaded KRAS G12D): 0.02 nM | EC50 (GP2D (KRAS G12D) cells; GP2d, 96 h): 2.4 nM

C#Cc1c(F)ccc2cccc(-c3nc4c5c(nc(OC[C@@]67CCCN6[C@H](COc6cnnc(C(F)(F)F)c6)CC7)nc5c3F)N3C[C@H]5CC[C@H](N5)[C@H]3CCC4)c12 [Example 199, (6aR,7S,10R)-2-(8-ethynyl-7-fluoronaphthalen-1-yl)-1-fluoro-13-(((3S,7aS)-3-(((6-(trifluoromethyl)pyridazin-4-yl)oxy)methyl)tetrahydro-1H-pyrrolizin-7a(5H)-yl)methoxy)-5,6,6a,7,8,9,10,11-octahydro-4H-3,11a,12,14,15-pentaaza-7,10-methanocyclohepta[4,5]cycloocta[1,2,3-de]naphthalene]
IC50 (GDP-loaded KRAS G12D): 0.07 nM | EC50 (GP2D (KRAS G12D) cells; GP2d, 96 h): 3.2 nM

C#Cc1c(F)ccc2cccc(-c3nc4c5c(nc(OC[C@@]67CCCN6[C@H](COc6cnc(C(F)F)cn6)CC7)nc5c3F)N3C[C@H]5CC[C@H](N5)[C@H]3CCC4)c12 [Example 200, (6aR,7S,10R)-13-(((3S,7aS)-3-(((5-(difluoromethyl)pyrazin-2-yl)oxy)methyl)tetrahydro-1H-pyrrolizin-7a(5H)-yl)methoxy)-2-(8-ethynyl-7-fluoronaphthalen-1-yl)-1-fluoro-5,6,6a,7,8,9,10,11-octahydro-4H-3,11a,12,14,15-pentaaza-7,10-methanocyclohepta[4,5]cycloocta[1,2,3-de]naphthalene]
IC50 (GDP-loaded KRAS G12D): 0.05 nM | EC50 (GP2D (KRAS G12D) cells; GP2d, 96 h): 2.9 nM

C#Cc1c(F)ccc2cccc(-c3nc4c5c(nc(OC[C@@]67CCCN6[C@H](CSc6cc(C(F)(F)F)ncn6)CC7)nc5c3F)N3C[C@H]5CC[C@H](N5)[C@H]3CCC4)c12 [Example 201, (6aR,7S,10R)-2-(8-ethynyl-7-fluoronaphthalen-1-yl)-1-fluoro-13-(((3S,7aS)-3-(((6-(trifluoromethyl)pyrimidin-4-yl)thio)methyl)tetrahydro-1H-pyrrolizin-7a(5H)-yl)methoxy)-5,6,6a,7,8,9,10,11-octahydro-4H-3,11a,12,14,15-pentaaza-7,10-methanocyclohepta[4,5]cycloocta[1,2,3-de]naphthalene]
IC50 (GDP-loaded KRAS G12D): 0.02 nM | EC50 (GP2D (KRAS G12D) cells; GP2d, 96 h): 10 nM

C#Cc1c(F)ccc2cccc(-c3c(Cl)c4c5c(nc(OC[C@@]67CCCN6C[C@H](F)C7)nc5c3F)N3C[C@H]5CC[C@H](N5)[C@H]3CC4)c12 [Example 202, (1S,4R,14aR)-12-chloro-11-(8-ethynyl-7-fluoronaphthalen-1-yl)-10-fluoro-8-(((2R,7aS)-2-fluorotetrahydro-1H-pyrrolizin-7a(5H)-yl)methoxy)-1,2,3,4,5,13,14,14a-octahydro-1,4-epiminoazepino[1′,2′:1,7]azepino[2,3,4-de]quinazoline]
IC50 (GDP-loaded KRAS G12D): 0.37 nM | EC50 (GP2D (KRAS G12D) cells; GP2d, 96 h): 64 nM

C#Cc1c(F)ccc2cccc(-c3nc4c5c(nc(OC[C@@]67CCCN6[C@H](COc6cc(C(F)(F)F)ncn6)CC7)nc5c3F)N3C[C@H]5CC[C@H](N5)[C@H]3CC[C@H]4C)c12 [Example 203, (4R,6aR,7S,10R)-2-(8-ethynyl-7-fluoronaphthalen-1-yl)-1-fluoro-4-methyl-13-(((3S,7aS)-3-(((6-(trifluoromethyl)pyrimidin-4-yl)oxy)methyl)tetrahydro-1H-pyrrolizin-7a(5H)-yl)methoxy)-5,6,6a,7,8,9,10,11-octahydro-4H-3,11a,12,14,15-pentaaza-7,10-methanocyclohepta[4,5]cycloocta[1,2,3-de]naphthalene]
IC50 (GDP-loaded KRAS G12D): 0.12 nM | EC50 (GP2D (KRAS G12D) cells; GP2d, 96 h): 1.2 nM

C#Cc1c(F)ccc2cc(O)cc(-c3c(Cl)c4c5c(nc(OC[C@@]67CCCN6C[C@H](F)C7)nc5c3F)N3C[C@H]5CC[C@H](N5)[C@H]3CC4)c12 [Example 204, 4-((1S,4R,14aR)-12-chloro-10-fluoro-8-(((2R,7aS)-2-fluorotetrahydro-1H-pyrrolizin-7a(5H)-yl)methoxy)-1,2,3,4,5,13,14,14a-octahydro-1,4-epiminoazepino[1′,2′:1,7]azepino[2,3,4-de]quinazolin-11-yl)-5-ethynyl-6-fluoronaphthalen-2-ol]
IC50 (GDP-loaded KRAS G12D): 0.1 nM | EC50 (GP2D (KRAS G12D) cells; GP2d, 96 h): 1.3 nM

C#Cc1c(F)ccc2cccc(-c3nc4c5c(nc(OC[C@@]67CCCN6[C@H](COc6cc(C(F)F)ncn6)CC7)nc5c3F)N3C[C@H]5CC[C@H](N5)[C@H]3CCC4)c12 [Example 205, (6aR,7S,10R)-13-(((3S,7aS)-3-(((6-(difluoromethyl)pyrimidin-4-yl)oxy)methyl)tetrahydro-1H-pyrrolizin-7a(5H)-yl)methoxy)-2-(8-ethynyl-7-fluoronaphthalen-1-yl)-1-fluoro-5,6,6a,7,8,9,10,11-octahydro-4H-3,11a,12,14,15-pentaaza-7,10-methanocyclohepta[4,5]cycloocta[1,2,3-de]naphthalene]
IC50 (GDP-loaded KRAS G12D): 0.06 nM | EC50 (GP2D (KRAS G12D) cells; GP2d, 96 h): 2.2 nM

C#Cc1c(F)ccc2cccc(-c3nc4c5c(nc(OC[C@@]67CCCN6[C@H](COc6ncncc6C(F)F)CC7)nc5c3F)N3C[C@H]5CC[C@H](N5)[C@H]3CCC4)c12 [Example 206, (6aR,7S,10R)-13-(((3S,7aS)-3-(((5-(difluoromethyl)pyrimidin-4-yl)oxy)methyl)tetrahydro-1H-pyrrolizin-7a(5H)-yl)methoxy)-2-(8-ethynyl-7-fluoronaphthalen-1-yl)-1-fluoro-5,6,6a,7,8,9,10,11-octahydro-4H-3,11a,12,14,15-pentaaza-7,10-methanocyclohepta[4,5]cycloocta[1,2,3-de]naphthalene]
IC50 (GDP-loaded KRAS G12D): 0.04 nM | EC50 (GP2D (KRAS G12D) cells; GP2d, 96 h): 1.6 nM

C#Cc1c(F)ccc2cccc(-c3nc4c5c(nc(OC[C@@]67CCCN6[C@H](COc6nccnc6C(F)F)CC7)nc5c3F)N3C[C@H]5CC[C@H](N5)[C@H]3CCC4)c12 [Example 207, (6aR,7S,10R)-13-(((3S,7aS)-3-(((3-(difluoromethyl)pyrazin-2-yl)oxy)methyl)tetrahydro-1H-pyrrolizin-7a(5H)-yl)methoxy)-2-(8-ethynyl-7-fluoronaphthalen-1-yl)-1-fluoro-5,6,6a,7,8,9,10,11-octahydro-4H-3,11a,12,14,15-pentaaza-7,10-methanocyclohepta[4,5]cycloocta[1,2,3-de]naphthalene]
IC50 (GDP-loaded KRAS G12D): 0.06 nM | EC50 (GP2D (KRAS G12D) cells; GP2d, 96 h): 1 nM

C#Cc1c(F)ccc2cccc(-c3nc4c5c(nc(OC[C@@]67CCCN6[C@H](COc6ccnc(C(F)F)n6)CC7)nc5c3F)N3C[C@H]5CC[C@H](N5)[C@H]3CCC4)c12 [Example 208, (6aR,7S,10R)-13-(((3S,7aS)-3-(((2-(difluoromethyl)pyrimidin-4-yl)oxy)methyl)tetrahydro-1H-pyrrolizin-7a(5H)-yl)methoxy)-2-(8-ethynyl-7-fluoronaphthalen-1-yl)-1-fluoro-5,6,6a,7,8,9,10,11-octahydro-4H-3,11a,12,14,15-pentaaza-7,10-methanocyclohepta[4,5]cycloocta[1,2,3-de]naphthalene]
IC50 (GDP-loaded KRAS G12D): 0.09 nM | EC50 (GP2D (KRAS G12D) cells; GP2d, 96 h): 3.3 nM

(6aR,7S,10R)-2-(8-ethynyl-7-fluoronaphthalen-1-yl)-1-fluoro-13-(((3S,7aS)-3-(((2-(trifluoromethyl)pyrimidin-4-yl)oxy)methyl)tetrahydro-1H-pyrrolizin-7a(5H)-yl)methoxy)-5,6,6a,7,8,9,10,11-octahydro-4H-3,11a,12,14,15-pentaaza-7,10-methanocyclohepta[4,5]cycloocta[1,2,3-de]naphthalene [Example 153]
IC50 (GDP-loaded KRAS G12D): 0.3 nM | EC50 (GP2D (KRAS G12D) cells): 4.3 nM
